Measurements from paper PMC12526156, “Optimization of the Macrocyclic Tetrapeptide [D-Trp]CJ-15,208 to Prevent Stress-Induced Relapse of Cocaine-Seeking Behavior” (Molecules, 2025).
In brackets after ≈: the same amount, converted by molar mass. Like-named read-outs stand apart in the source and are kept apart here. Where a SMILES comes first, the peptide text is derived from it. [ ]: non-standard residue; d: D form. dPhe(4-NO2) = N[C@H](Cc1ccc([N+](=O)[O-])cc1)C(=O)O; dTrp(1-Me) = Cn1cc(C[C@@H](N)C(=O)O)c2ccccc21; dPhe(2-Me) = Cc1ccccc1C[C@@H](N)C(=O)O; dPhe(4-F) = N[C@H](Cc1ccc(F)cc1)C(=O)O; dPhe(2-F) = N[C@H](Cc1ccccc1F)C(=O)O

How the values were obtained:
hKOR [1] = molecular target: T1, hKOR (Homo sapiens, UniProt P41145); test: Competition binding, [3H]U69,593, hKOR-CHO membranes; details: for Ki: [3H]U69,593, human KOR, ± S.E.M., three independent experiments, read-out: KOR Ki
human MOR = molecular target: T2, human MOR (Homo sapiens, UniProt P35372); test: biochemical; assay type: binding
T2 construct: expressed in transfected cells

hKOR [2] = molecular target: T1, hKOR; test: KOR cAMP assay using GloSensor-22F, agonist mode (KOR-CHO-GLO cells); assay type: cell-based; details: for Emax at 10 µM: read-out: KOR Efficacy (%)
hKOR [3] = molecular target: T1, hKOR; test: KOR cAMP assay using GloSensor-22F, antagonist mode (vs 10 nM U50,488); assay type: cell-based
Text: A piggy-Bac (PB) transposon/transposase system was utilized to allow for the stable integration of the GloSensor-22F cAMP sensor (Promega, Madison, WI, USA) gene into genomic TTAA sites in Chinese hamster ovary cells already stably expressing the hKOR. The pFastBac hyperPB plasmid vector, which codes for the piggy-Bac transposon/transposase system, was utilized and was a kind gift from Dr. John Lueck. The multicistronic expression cassette developed for our experiments consisted of a CMV promoter driving constitutive expression of GloSensor-22F cAMP sensor, followed by an internal ribosome entry site (IRES) to drive the expression of codon-optimized HygR-P2A-mScarlet (hygromycin resistance gene and mScarlet separated by a 2A self-cleaving peptide element). To clone the expression cassette onto the pFastBac vector, the CMV promoter and GloSensor-22F were PCR amplified from pGloSensor-22F cAMP Plasmid (Promega), the IRES sequence was PCR amplified from pLVX-CMV-Galpha-oA ONE-GO (a gift from Dr. Mikel Garcia-Marcos, Addgene plasmid #189732), the HygR-P2A-mScarlet sequence was a kind gift from Dr. Lueck, and a bGH-poly(A) termination sequence was PCR amplified from pcDNA3.1(+). The pFastBac vector was linearized via overnight digestion with CspCI at 37 °C, which cuts between two inverted terminal repeat (ITR) sequences, and the corresponding backbone and all PCR fragments were gel purified and assembled via Gibson assembly using the Gibson Assembly MasterMix (New England Biolabs, Ipswich, MA, USA). The resulting pFastBac CMV GloSensor-22F IRES HygR-P2A-mScarlet bGH plasmid was transformed into NEB Stable Competent E. coli (New England Biolabs), miniprepped using the E.Z.N.A. Plasmid DNA Mini Kit (Omega Bio-Tek, Norcross, GA, USA), and sequence verified by nanopore whole-plasmid sequencing (Eurofins Genomics, Louisville, KY, USA).
3.0 × 10^6 hKOR-CHO cells were plated on a 6 cm dish and incubated for four h at 37 °C and 5% CO2 in DMEM (Corning Mediatech, Manassas, VA, USA) supplemented with 5% FBS (Corning Mediatech), 1% Penicillin/Streptomycin (Gibco, Waltham, MA, USA). The cells were then transfected with 2.0 μg pFastBac CMV GloSensor-22F IRES HygR-P2A-mScarlet bGH using PEI as a transfection reagent. The following day, transfected cells were reseeded onto a 10 cm dish at a density of 5.0 × 10^5 cells and 600 μg/mL hygromycin B (Gold Bio, St. Louis, MO, USA) was added to the culture media. Cells were cultured under selection antibiotics for seven days, and the selection process was monitored by the increase in abundance of mScarlet positive cells via epifluorescence microscopy.
Following the selection period, KOR-CHO-GLO cells were maintained at 37 °C and 5% CO2 in DMEM supplemented with 5% FBS, 1% Penicillin/Streptomycin and 300 μg/mL hygromycin B to reduce the likelihood of CMV promoter silencing. On the day of the assay, cells were detached with 0.05% trypsin (Gibco) and counted, then centrifuged (1000× g, 5 min) and resuspended in assay buffer (1xPBS, 0.1% glucose, 0.5 mM MgCl2) containing 4 mM D-luciferin substrate (Gold Bio) at approximately 2 million cells/mL. 25 μL of cells (~50,000/well) were seeded onto poly L-lysine-coated white 96-well flat bottom plates (Greiner Bio-One, Kremsmünster, Austria)) and returned to the incubator for 60 min. Following incubation, cells were allowed to equilibrate to room temperature protected from light (10–15 min). Initial luminescence readings (at least 10 cycles) were collected for each well using a FLUOstar Omega v.6.2 plate reader (BMG Labtech, Ortenberg, Germany), after which the plate was removed. Prepared 4x treatments of drug (25 μL) were added to appropriate wells followed by 50 μL of 20 μM forskolin (AmBeed, Buffalo Grove, IL, USA) before the plate was returned to the reader and luminescence measured until final plateau levels were achieved (20–30 min). Assays were performed in duplicate and repeated at least three times.

[4] = Metabolic stability in human liver microsomes; assay type: in vitro ADME; details: 1 mg protein/mL; for half-life at 1 µM / microsomal CLint at 1 µM: human liver microsomes
Procedure: (§1) Evaluation of the metabolic stability of the macrocyclic tetrapeptides by human and mouse liver microsomes was performed by Curia Global (Buffalo, NY, USA). […]

[5] = Metabolic stability in mouse liver microsomes; assay type: in vitro ADME; details: 1 mg protein/mL; for half-life at 1 µM / microsomal CLint at 1 µM: mouse liver microsomes
Procedure: as §1

[6] = Kinetic aqueous solubility; assay type: physicochemical; details: 1% DMSO, pH 7.4
Text: Table A1 Stability of [D-Trp]- and [D-Phe^4]CJ-15,208 and selected analogs in human (HLMs) and mouse liver microsomes (MLMs)^1. and kinetic aqueous solubility. | column: Solubility ^2 / (µM)

[7] = [3H]DAMGO, human MOR, ± S.E.M., three independent experiments, read-out: MOR Ki
[8] = 1 µM compound, 37 °C, read-out: HLM t1/2
[9] = 1 µM compound, 37 °C, read-out: MLM t1/2

Row | SMILES | Selectivity (MOR Ki/KOR Ki) (hKOR [1]; MOR Ki/KOR Ki) | Ki (hKOR [1]) [nM] | Ki (human MOR; [7]) [nM] | Emax at 10 µM (hKOR [2]) [%] | IC50 (hKOR [3]) [nM] | half-life at 1 µM [4, 8] [min] | microsomal CLint at 1 µM ([4]; read-out: HLM CLint) [µL/min/mg] | half-life at 1 µM [5, 9] [min] | microsomal CLint at 1 µM ([5]; read-out: MLM CLint) [µL/min/mg] | solubility kinetic [6] [µM] | Selectivity (MOR Ki/KOR Ki) (hKOR [1]) | Ki (human MOR) [nM] | activity type in the cAMP assay (hKOR [2]) | KOR Efficacy (%) (hKOR [2]; mean % inhibition ± SEM at 10 µM relative to the KOR agonist U50,488, forskolin-stimulated cAMP) | IC50 (hKOR [3]; antagonism of an IC80 concentration (10 nM) of U50,488 in the cAMP assay, ± SEM, read-out: KOR Antag. IC50) [nM] | half-life ([4]; microsomes, 1 µM compound, 37 °C, read-out: HLM t1/2) [min] | microsomal CLint ([4]; microsomes, read-out: HLM CLint) [µL/min/mg] | half-life ([5]; microsomes, 1 µM compound, 37 °C, read-out: MLM t1/2) [min] | microsomal CLint ([5]; microsomes, read-out: MLM CLint) [µL/min/mg]
1 | Cn1cc(C[C@H]2NC(=O)[C@H](Cc3ccccc3)NC(=O)[C@H]3CCCN3C(=O)[C@H](Cc3ccccc3)NC2=O)c2ccccc21 [Analog 2, [D-Trp(Me)]CJ-15,208] (cyclo(F[dP]F[dTrp(1-Me)])) | 2 | 16 ± 0.8 | 36 ± 2.6 | 14 ± 7.1 | 220 ± 32 | 2.4 | 286 | 3.3 | 211 | 12 (≈ 7.1 µg/mL) |  |  |  |  |  |  |  |  | 
2 | O=C1N[C@H](Cc2cc(F)c(F)cc2F)C(=O)N[C@@H](Cc2ccccc2)C(=O)N2CCC[C@@H]2C(=O)N[C@H]1Cc1ccccc1 [Analog 10] | 10 | 27 ± 3.3 | 270 ± 30 | 19 ± 6.8 | 290 ± 40 | 1.5 | 462 | 1 | 699 | 7.4 (≈ 4.39 µg/mL) |  |  |  |  |  |  |  |  | 
3 | O=C1N[C@H](Cc2ccccc2F)C(=O)N[C@@H](Cc2ccccc2)C(=O)N2CCC[C@@H]2C(=O)N[C@H]1Cc1ccccc1 [Analog 5] (cyclo(F[dP]F[dPhe(2-F)])) | 9 | 39 ± 0.57 | 350 ± 22 |  |  | 1.9 | 373 | 1.6 | 430 | 15 (≈ 8.35 µg/mL) |  |  |  |  |  |  |  |  | 
4 | Cc1ccccc1C[C@H]1NC(=O)[C@H](Cc2ccccc2)NC(=O)[C@H]2CCCN2C(=O)[C@H](Cc2ccccc2)NC1=O [Analog 13] (cyclo(F[dP]F[dPhe(2-Me)])) | 2.5 | 110 ± 13 | 280 ± 8 |  |  |  |  |  |  |  |  |  |  |  |  |  |  |  | 
5 | Cc1cc(C)cc([C@@H]2CCCN2Cc2ccc(Oc3ccc(C(N)=O)cc3F)cc2)c1 [Aticaprant, reference compound] |  | 0.77 ± 0.1 |  |  |  |  |  |  |  |  | 19 | 15 ± 2 | inverse agonist | −48 ± 3.0 ^8% | 8 ± 1.7 |  |  |  | 
6 | O=C1N[C@H](Cc2ccc([N+](=O)[O-])cc2)C(=O)N[C@@H](Cc2ccccc2)C(=O)N2CCC[C@@H]2C(=O)N[C@H]1Cc1ccccc1 [Analog 16] (cyclo(F[dP]F[dPhe(4-NO2)])) | 9 | 7 ± 0.99 | 61 ± 2.7 | 7.3 ± 7.3 | 210 ± 13 | 6.7 | 103 | 4.4 | 159 | 6.7 (≈ 3.91 µg/mL) |  |  |  |  |  |  |  |  | 
7 | O=C1N[C@H](Cc2ccc(F)cc2)C(=O)N[C@@H](Cc2ccccc2)C(=O)N2CCC[C@@H]2C(=O)N[C@H]1Cc1ccccc1 [Analog 7] (cyclo(F[dP]F[dPhe(4-F)])) |  |  |  | 5.5 ± 7.9 |  |  |  |  |  | 25 (≈ 13.9 µg/mL) |  |  |  |  |  | 2.3 | 296 | 3.4 | 202
